Each structure is given as a SMILES string. A value given as a limit tells only on which side of the number the result lay.

In the assay the test system is HCV 1b_Huh-Luc/Neo-ET cell line persistently expressing a bicistronic genotype 1b replicon in Huh 7 cells. As to the kind of experiment: HCV replicon assay (luciferase readout). The format is cell-based. Conditions: Hepatitis C virus, Huh-7, 72 h, read-out: Inhibition of HCV genotype 1b. In a few lines: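 EC50, determined repeatedly, comes from a four-parameter logistic fit of luciferase signal as percent of untreated control. Readout follows 72 h compound exposure, in triplicate, of the HCV 1b_Huh-Luc/Neo-ET replicon line.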

As to `CC[C@H](NC(=O)OC)C(=O)N1CCC[C@H]1c1ncc(-c2ccc(C#Cc3ccc4nc([C@@H]5CCCN5C(=O)[C@H](CC)NC(=O)OC)[nH]c4c3)cc2)[nH]1` [Compound 1036], the EC50 is < 1 nM.

As for `COC(=O)N[C@@H](C(=O)N1CCC[C@H]1C(=O)Nc1ccc(C#Cc2ccc(-c3cnc([C@@H]4CCCN4C(=O)[C@H](NC(=O)OC)c4ccccc4)[nH]3)cc2)cc1)c1ccccc1` [Compound 171], the EC50 is < 1 nM.

As for `COC(=O)N[C@H]1CCC[C@@H]1C(=O)N1CCC[C@H]1c1ncc(-c2ccc(C#Cc3ccc4nc([C@@H]5CCCN5C(=O)[C@H]5CCC[C@@H]5NC(=O)OC)[nH]c4c3)cc2)[nH]1` [Compound 1059], the EC50 was 10 to 999 nM.

Consider `COC(=O)N[C@H](C(=O)N[C@@H](C)c1ncc(-c2ccc(C#Cc3ccc4nc([C@@H]5CCCN5C(=O)[C@@H](NC(=O)OC)C(C)C)[nH]c4c3)cc2)[nH]1)C(C)C` [Compound 869], for which the EC50 is < 1 nM.

`COC(=O)N[C@H](C(=O)N[C@@H](C)c1ncc(-c2ccc(C#Cc3ccc(-c4cnc([C@@H]5CCCN5C(=O)[C@@H](NC(=O)OC)C(C)C)[nH]4)cc3)cc2)[nH]1)C(C)C` [Compound 275]: the EC50 is < 1 nM.

Consider `CC(C)[C@@H](NC(=O)C1CC1)C(=O)N1CCC[C@H]1C(=O)NCCc1ccc(C#Cc2cnc([C@@H]3CCCN3C(=O)[C@H](NC(=O)C3CC3)C(C)C)[nH]2)cc1` [Compound 127], for which the EC50 is 10 to 999 nM.

With `CC(C)(C)OC(=O)N[C@@H](C(=O)N1CCC[C@H]1c1ncc(C#Cc2ccc(-c3cnc([C@@H]4CCCN4C(=O)[C@H](NC(=O)OC(C)(C)C)c4ccccc4)[nH]3)cc2)[nH]1)c1ccccc1` [Compound 99], the EC50 was < 1 nM.

As to `O=C(N[C@@H](C(=O)N1CCC[C@H]1c1ncc(C#Cc2ccc(C#Cc3cnc([C@@H]4CCCN4C(=O)[C@H](NC(=O)C4CC4)c4ccccc4)[nH]3)cc2)[nH]1)c1ccccc1)C1CC1` [Compound 303], the EC50 is < 1 nM.

Consider `COC(=O)N[C@@H](C(=O)N1CCC[C@H]1c1ncc(C#Cc2ccc(C#Cc3cnc([C@@H]4CCCN4C(=O)[C@@H](c4ccccc4)N4CCCC4)[nH]3)cc2)[nH]1)c1ccccc1` [Compound 311], for which the EC50 was < 1 nM.

For `COC(=O)N[C@H](C(=O)N1CCC[C@H]1c1ncc(-c2ccc(C#Cc3ccc(-c4cnc([C@H](C)NC(=O)[C@@H](c5ccccc5)N(C)C)[nH]4)cc3)cc2)[nH]1)C(C)C` [Compound 983], the EC50 was < 1 nM.

For the compound `C[C@@H](NC(=O)[C@@H]1CCCN1C(=O)[C@H](NC(=O)OC(C)(C)C)c1ccccc1)c1ccc(C#Cc2ccc(-c3cnc([C@@H]4CCCN4C(=O)[C@H](NC(=O)OC(C)(C)C)c4ccccc4)[nH]3)cc2)cc1` [Compound 167], the EC50 is 1 to 9.9 nM.

As to `O=C(NCC(=O)N1CCC[C@H]1c1ncc(C#Cc2ccc(-c3cnc([C@@H]4CCCN4C(=O)CNC(=O)C4CC4)[nH]3)cc2)[nH]1)C1CC1` [Compound 113], the EC50 was 10 to 999 nM.

Consider `O=C(N[C@@H](C(=O)N1CCC[C@H]1c1ncc(C#Cc2ccc(-c3cnc([C@@H]4CCCN4C(=O)[C@H](NC(=O)C4CC4)c4ccccc4)[nH]3)cc2)[nH]1)c1ccccc1)C1CC1` [Compound 100], for which the EC50 was < 1 nM.

For the compound `COC(=O)N[C@H](C(=O)N1CCC[C@H]1c1nc2c([nH]1)-c1ccc(C#Cc3ccc(-c4cnc([C@@H]5CCCN5C(=O)[C@H](NC(=O)OC)c5ccccc5)[nH]4)cc3F)cc1CC2)C(C)C` [Compound 1098], the EC50 was < 1 nM.

For `CC(C)(C)OC(=O)N1CCCC1c1ncc(-c2ccc(C#Cc3ccc4nc([C@@H]5CCCN5C(=O)OC(C)(C)C)[nH]c4c3)cc2)[nH]1` (some centres unmarked) [Compound 1034], the EC50 is 1 to 9.9 nM.

In the case of `O=C(N[C@@H](C(=O)N1CCC[C@H]1c1ncc(C#Cc2ccc(-c3ccc(-c4cnc([C@@H]5CCCN5C(=O)[C@H](NC(=O)N5CC[C@@H](O)C5)c5ccccc5)[nH]4)cc3)cc2)[nH]1)c1ccccc1)N1CC[C@@H](O)C1` [Compound 763], the EC50 was < 1 nM.

`O=S(=O)(Cc1ccccc1)N1CCC[C@H]1c1ncc(-c2ccc(C#Cc3ccc4nc([C@@H]5CCCN5S(=O)(=O)Cc5ccccc5)[nH]c4c3)cc2)[nH]1` [Compound 1042]: the EC50 was > 1000 nM.

On to `COC(=O)N[C@H](C(=O)N1CCC[C@H]1c1nc2c([nH]1)-c1ccc(C#Cc3ccc(-c4cnc([C@@H]5CCCN5C(=O)[C@@H](NC(=O)OC)C5CCOCC5)[nH]4)cc3)cc1CC2)C(C)C` [Compound 1091], for which the EC50 was < 1 nM.

Turning to `O=C([C@H](O)c1ccccc1)N1CCC[C@H]1c1ncc(C#Cc2ccc(-c3cnc([C@@H]4CCCN4C(=O)[C@H](O)c4ccccc4)[nH]3)cc2)[nH]1` [Compound 112], the EC50 was < 1 nM.

In the case of `COC(=O)N[C@@H](C(=O)N[C@@H](C)c1ncc(-c2ccc(C#Cc3ccc(-c4cnc([C@H](C)NC(=O)[C@H](NC(=O)OC)C(C)C)[nH]4)cc3)cc2)[nH]1)C(C)C` [Compound 950], the EC50 is < 1 nM.

With `CCN(CC)[C@@H](C(=O)N1CCC[C@H]1c1ncc(C#Cc2ccc(C#Cc3cnc([C@@H]4CCCN4C(=O)[C@H](NC(=O)OC)c4ccccc4)[nH]3)cc2)[nH]1)c1ccccc1` [Compound 315], the EC50 was < 1 nM.

As to `C[C@@H](c1ncc(-c2ccc(C#Cc3ccc(-c4cnc([C@@H]5CCCN5C(=O)[C@H](NC(=O)OC(C)(C)C)c5ccccc5)[nH]4)cc3)cc2)[nH]1)N(C)C(=O)[C@H](NC(=O)OC(C)(C)C)c1ccccc1` [Compound 265], the EC50 was < 1 nM.

As for `CC(C)[C@@H](C(=O)N1CCC[C@H]1c1ncc(-c2ccc(C#Cc3ccc4nc([C@@H]5CCCN5C(=O)[C@H](C(C)C)N5CCOC5=O)[nH]c4c3)cc2)[nH]1)N1CCOC1=O` [Compound 1039], the EC50 lay within 1 to 9.9 nM.

On to `CN(C)[C@@H](C(=O)N1CCC[C@H]1c1ncc(C#Cc2ccc(-c3cnc([C@@H]4CCCN4C(=O)[C@H](NC(=O)C4CC4)c4ccccc4)[nH]3)cc2)[nH]1)c1ccccc1` [Compound 133], for which the EC50 is < 1 nM.

Take `COC(=O)N[C@H](C(=O)N1CCC[C@H]1c1nc2ccc(C#Cc3ccc(-c4cnc([C@@H]5CCCN5C(=O)[C@H](c5ccccc5)N(C)C)[nH]4)cc3)cc2[nH]1)C(C)C` [Compound 864]: the EC50 is < 1 nM.

As for `CC(C)(C)OC(=O)N[C@@H](C(=O)N1CCC[C@H]1c1ncc(-c2ccc(C#Cc3ccc4nc([C@@H]5CCCN5C(=O)[C@H](NC(=O)OC(C)(C)C)c5ccccc5)[nH]c4c3)cc2)[nH]1)c1ccccc1` [Compound 801], the EC50 was < 1 nM.

Consider `O=C(N[C@@H](C(=O)N1CCC[C@H]1c1ncc(-c2ccc(C#Cc3ccc(-c4cnc([C@@H]5CCCN5C(=O)[C@H](NC(=O)N5CC[C@H](O)C5)c5ccccc5)[nH]4)cc3)cc2)[nH]1)c1ccccc1)N1CC[C@H](O)C1` [Compound 245], for which the EC50 was < 1 nM.

As to `CC(C)(C)OC(=O)NCC(=O)N1CCC[C@H]1c1ncc(C#Cc2ccc(-c3cnc([C@@H]4CCCN4C(=O)CNC(=O)OC(C)(C)C)[nH]3)cc2)[nH]1` [Compound 103], the EC50 lay within 10 to 999 nM.

Take `COC(=O)N[C@H](C(=O)N1CCC[C@H]1c1ncc(-c2ccc(C#Cc3ccc(-c4cnc([C@@H]5CCCN5C(=O)[C@@H](c5ccccc5)N5CCCCC5)[nH]4)cc3)cc2)[nH]1)C(C)C` [Compound 986]: the EC50 was < 1 nM.

Consider `C[C@H](NC(=O)[C@@H]1CCCN1C(=O)[C@H](NC(=O)C1CC1)c1ccccc1)c1ccc(C#Cc2cnc([C@@H]3CCCN3C(=O)[C@H](NC(=O)C3CC3)c3ccccc3)[nH]2)cc1` [Compound 132], for which the EC50 was 10 to 999 nM.

`COC(=O)N[C@H](C(=O)N1CCC[C@H]1c1nc2ccc(-c3ccc(C#Cc4cnc([C@@H]5CCCN5C(=O)[C@H](NC(=O)OC)c5ccccc5)[nH]4)cc3)cc2[nH]1)C(C)C` [Compound 1085]: the EC50 was < 1 nM.

Take `COC(=O)N[C@@H](C)C(=O)N1CCC[C@H]1c1ncc(-c2ccc(C#Cc3ccc(-c4cnc([C@@H]5CCCN5C(=O)[C@H](NC(=O)OC)c5ccccc5)[nH]4)cc3)cc2)[nH]1` [Compound 1004]: the EC50 is < 1 nM.

For `COC(=O)N[C@@H](C(=O)N1CCC[C@H]1c1ncc(-c2ccc(C#Cc3ccc(-c4cnc([C@@H]5CCCN5C(=O)[C@H](C)c5ccccc5)[nH]4)cc3)cc2)[nH]1)c1ccccc1` [Compound 256], the EC50 is < 1 nM.

As to `CNC(=O)N[C@@H](C(=O)N1CCC[C@H]1c1ncc(-c2ccc(C#Cc3ccc(-c4cnc([C@@H]5CCCN5C(=O)[C@H](NC(=O)C5CC5)c5ccccc5)[nH]4)cc3)cc2)[nH]1)c1ccccc1` [Compound 997], the EC50 is < 1 nM.

In the case of `COC(=O)N[C@@H](C(=O)N1CCC[C@H]1c1ncc(-c2ccc(C#Cc3ccc(-c4cnc([C@@H]5CCCN5C(=O)[C@H](NC(=O)N5CCCCC5)c5ccccc5)[nH]4)cc3)cc2)[nH]1)c1ccccc1` [Compound 242], the EC50 was < 1 nM.

`COC(=O)N[C@H](C(=O)N1CCC[C@H]1c1ncc(-c2ccc(C#Cc3ccc(-c4cnc([C@@H]5CCCN5C(=O)[C@@H](NC(=O)OC)C5CCOCC5)[nH]4)c(F)c3)cc2)[nH]1)C1CCOCC1` [Compound 1012]: the EC50 was < 1 nM.

In the case of `COC(=O)N[C@H](C(=O)N1CCC[C@H]1c1nc2ccc(C#Cc3ccc(-c4cnc([C@@H]5CCCN5)[nH]4)cc3)cc2[nH]1)C(C)C` [Compound 1055], the EC50 was 10 to 999 nM.

With `CN(C)[C@@H](C(=O)N1CCC[C@H]1c1ncc(-c2ccc(C#Cc3ccc(-c4cnc([C@@H]5CCCN5C(=O)[C@@H](c5ccccc5)N(C)C)[nH]4)cc3)cc2)[nH]1)c1ccccc1` [Compound 160], the EC50 is < 1 nM.

As for `COC(=O)N[C@H](C(=O)N1CCC[C@H]1c1ncc(-c2ccc(C#Cc3ccc4nc([C@@H]5CCCN5C(=O)[C@H](C(C)C)N(C)C)[nH]c4c3)cc2)[nH]1)C(C)C` [Compound 1021], the EC50 is < 1 nM.

Turning to `COC[C@H](NC(=O)OC)C(=O)N1CCC[C@H]1c1ncc(-c2ccc(C#Cc3ccc4nc([C@@H]5CCCN5C(=O)[C@H](COC)NC(=O)OC)[nH]c4c3)cc2)[nH]1` [Compound 1037], the EC50 was < 1 nM.

`C[C@@H](NC(=O)C1CC1)C(=O)N1CCC[C@H]1c1ncc(-c2ccc(C#Cc3ccc(-c4cnc([C@@H]5CCCN5C(=O)[C@@H](C)NC(=O)C5CC5)[nH]4)cc3)cc2)[nH]1` [Compound 154]: the EC50 lay within 1 to 9.9 nM.

Source of the values: patent publication US8865756B2, “Inhibitors of HCV NS5A” (Presidio Pharmaceuticals, Inc., priority 2008, dated 2014).
